Test results: patent US20050043396A1, “5-Benzoylamino-1,3-dioxacyclanes, the method for preparing the same and their use as PKC inhibitor” (priority 2003, published 2005)
Marks after values point to notes of the source that are not given here.

System: model of the ear swilling of mice
Assay: Anti-inflammatory activity: xylene-induced ear swelling of mice (recognized PKC inhibitor model)
Format: in vivo, Male Kunming species mice
Description: Based on the knowledge of cycloacetals as structural types of the PKC inhibitors, the PKC inhibitor model recognized (i.e. model of the ear swilling of mice) was adopted to evaluate the activity of cycloacetals 1-21 as PKC inhibitor.
In the present invention the model of the ear swilling of mice was used to evaluate the anti-inflammatory activity of 5-benzoylamino-1,3-dioxscyclane compounds. The compounds of the present invention were suspended in CMC solution (5%) at the ratio of […], while the positive control was the suspension of aspirin, and CMC solution (5%) at the ratio of […], and the vehicle control was CMC solution (5%). Male Kunming species mice (from Animal Department of Beijing Medical University, grade 2) with weight about 20-25 g, which were randomly divided into treatment group, vehicle control group, and positive control group with 10 mice each group (food deprivation for 8 hours before testing, drinking unlimited) were administered orally once. 30 minutes after the administration, xylene (0.02 ml) was smeared on the left exterior auricular of the mice, and 4 hours later, the mice were killed by dislocation of cervical vertebra. Double circular pinnae were taken from two ears using 9 mm punching bear, and the swelling was determined by the weight variation of the two pinnae.
An adaptation of the method of Gad et al (1986) was employed for sensitization. Mice were allowed to acclimate for a week after arrival in the laboratory, then were screened to remove any from testing which have ears that appear red or swollen. Male Kunming species, 6 to 8 weeks old, about 20-25 g, were shaved and tape stripped at the start of each study. Mice were randomly divided into test group, vehicle control group, and positive control group with 10 mice each one.
[…] The application was allowed to dry before the animal was returned to its cage. Mice were killed 4 hours later, and a 9-mm Keyes cutaneous punch was used to obtain uniform tissue sections for weight variation which indicating the swelling degree. Groups were statistically analyzed using the Wilk-Shapiro test for normality and the paired parametric Student t test with a significance level of p<0.05. Data were expressed as the mean difference plus or minus the standard error.
Each mouse in the vehicle control mice group was administered orally 0.2 ml of carboxymethyl cellulose (0.5%) once a day, while each mouse in the positive control group was administered orally suspension of 0.6 mg of aspirin in 0.2 ml of carboxymethyl cellulose (0.5%) once a day, and each mouse in the test group was administed orally the suspension of 0.6 mg of the compounds of the present invention in 0.2 ml of carboxymethyl cellulose (0.5%) once a day. The applications were repeated for three consecutive days.
Administered with the same manner and dosage.

[1] = administered orally 1 time, 30 mg/kg, n = 10 (Table 2)
[2] = oral once a day for 3 consecutive days, Dosage = 30 mg/Kg, n = 10, weight difference of 9 mm ear punches, xylene
[3] = administered orally 1 time, 21 mg/kg, n = 10 (Table 2)

## CC(=O)Oc1ccccc1C(=O)O [Aspirin, aspirin, reference compound]
[1]
  Weight variation (X ± SD mg): 4.17 ± 1.80^1) mg
[2]
  Weight variation (X ± SD mg): 4.26 ± 1.44^1) mg

## COC(CC1OCC(NC(=O)c2ccccc2)C(C)O1)OC (centres unmarked) [Compound 9]
[1]
  Weight variation (X ± SD mg): 3.28 ± 2.06^3,5) mg
[2]
  Weight variation (X ± SD mg): 3.97 ± 1.49^1) mg

## COC(CC1OCCC(NC(=O)c2ccccc2)CO1)OC (centres unmarked) [Compound 18]
[3]
  Weight variation (X ± SD mg): 4.31 ± 1.75^1) mg

## C[C@@H]1O[C@@H](c2ccc([N+](=O)[O-])cc2)OC[C@H]1NC(=O)c1ccccc1 [Compound 24, (2S,4S,5R)-2-p-nitrophenyl-5-benzoylamino-4-methyl-1,3-dioxane]
dosage-effect relationship, 2.3 mg/Kg (Table 3)
  Weight variation (X ± SD mg): 3.21 ± 1.68 mg
dosage-effect relationship, 7 mg/Kg (Table 3)
  Weight variation (X ± SD mg): 1.81 ± 0.63 mg
dosage-effect relationship, 30 mg/Kg (Table 3)
  Weight variation (X ± SD mg): 1.43 ± 0.89 mg

## O=CCC1OCC(NC(=O)c2ccccc2)CO1 (centres unmarked) [Compound 38]
[1]
  Weight variation (X ± SD mg): 5.81 ± 2.46 mg

## CC1OC(CC=O)OCC1NC(=O)c1ccccc1 (centres unmarked) [Compound 39]
[1]
  Weight variation (X ± SD mg): 4.84 ± 2.30^1) mg

## O=CCC1OCCC(NC(=O)c2ccccc2)CO1 (centres unmarked) [Compound 40]
[3]
  Weight variation (X ± SD mg): 3.55 ± 1.69^3,6) mg
